One experiment deals with Tetranychus urticae. Kind of experiment: Tetranychus urticae spray test, OP-resistant (bean leaf discs). It counts as in vivo. To be noted: 100 g/ha; after 6 days. Here is the method: After 6 days, the efficacy in % is determined.
For a further experiment, the system named is Spodoptera frugiperda. Put plainly: Spodoptera frugiperda spray test. It counts as in vivo. To be noted: 100 g/ha; after 7 days.
Experiment [1] deals with Ctenocephalides felis. Put plainly: Ctenocephalides felis in vitro contact test with adult cat fleas. It counts as in vivo. To be noted: application rate 5 μg/cm^2 (=500 g/ha); after 48 h; dead or moribund fleas. Here is the method:
(§1) For the coating of the test tubes, 9 mg of active ingredient are first dissolved in 1 ml of acetone p.a. and then diluted to the desired concentration with acetone p.a. 250 μl of the solution are distributed homogeneously on the inner walls and the base of a 25 ml glass tube by turning and rocking on an orbital shaker (rocking rotation at 30 rpm for 2 h). With 900 ppm of active ingredient solution and internal surface area 44.7 cm^2, given homogeneous distribution, an area-based dose of 5 μg/cm^2 is achieved.
After the solvent has evaporated off, the tubes are populated with 5-10 adult cat fleas (Ctenocephalides felis), sealed with a perforated plastic lid and incubated in a horizontal position at room temperature and ambient humidity. After 48 h, efficacy is determined. To this end, the tubes are stood upright and the fleas are knocked to the base of the tube. Fleas which remain motionless at the base or move in an uncoordinated manner are considered to be dead or moribund.
100% efficacy means that all the fleas were dead or moribund. 0% efficacy means that no fleas were harmed.

The test system of another experiment is Boophilus microplus. Put plainly: Boophilus microplus injection test. It counts as in vivo. The following applies: 20 μg/animal; assessed after 7 days. Here is the method:
(§2) • Solvent: dimethyl sulfoxide
1 μl of the active ingredient solution is injected into the abdomen of 5 engorged adult female cattle ticks (Boophilus microplus). The animals are transferred into dishes and kept in a climate-controlled room.

The subject of experiment [2] is Ctenocephalides felis. Kind of experiment: Ctenocephalides felis oral test. It counts as in vivo. The following applies: 100 ppm in citrated cattle blood; after 2 days. Here is the method: • Solvent: Dimethyl Sulfoxide
To produce a suitable active ingredient formulation, 10 mg of active ingredient are mixed with 0.5 ml of dimethyl sulfoxide. Dilution with citrated cattle blood gives the desired concentration.
About 20 unfed adult cat fleas (Ctenocephalides fells) are placed into a chamber which is closed at the top and bottom with gauze. A metal cylinder whose bottom end is closed with parafilm is placed onto the chamber. The cylinder contains the blood/active ingredient formulation, which can be imbibed by the fleas through the parafilm membrane.

In a further experiment the test system is Phaedon cochleariae. Put plainly: Phaedon cochleariae spray test. To be noted: 100 g/ha; after 7 days.
The test system of the next experiment is Musca domestica. Kind of experiment: Musca domestica test. It counts as in vivo. The following applies: 100 ppm; adult houseflies; after 2 days. Here is the method: as §2
To produce a suitable active ingredient formulation, 10 mg of active ingredient are mixed with 0.5 ml of dimethyl sulfoxide, and the concentrate is diluted with water to the desired concentration.
Vessels containing a sponge treated with sugar solution and the active ingredient formulation of the desired concentration are populated with 10 adult houseflies (Musca domestica).

In a further experiment the test system is Rhipicephalus sanguineus. Kind of experiment: Rhipicephalus sanguineus in vitro contact test with adult brown dog ticks. It counts as in vivo. The following applies: application rate 5 μg/cm^2 (=500 g/ha); after 48 h; dead or moribund ticks. Here is the method: as §1
After the solvent has evaporated off, the tubes are populated with 5-10 adult dog ticks (Rhipicephalus sanguineus), sealed with a perforated plastic lid and incubated in a horizontal position in the dark at room temperature and ambient humidity. After 48 h, efficacy is determined. To this end, the ticks are knocked to the base of the tube and incubated on a hotplate at 45-50° C. for not more than 5 min. Ticks which remain motionless on the base or move in such an uncoordinated manner that they are unable to deliberately avoid the heat by climbing upwards are considered to be dead or moribund.
An efficacy of 100% means that all the ticks were dead or moribund. 0% efficacy means that none of the ticks were harmed.

“And” between values parts separate entries of the source, which are not always exact repeats. Identical values can stand only once.

Take `CC(C)C(=O)NCc1cc(-c2cnn(-c3c(Cl)cc(C(F)(C(F)(F)F)C(F)(F)F)cc3C(F)F)c2)ccc1F` [Ia-60]: the efficacy with Tetranychus urticae, in the experiment on Spodoptera frugiperda, in the experiment with Ctenocephalides felis [1] and with Phaedon cochleariae was 100% each time. Also, the “efficacy (laying of fertile eggs)” value with Boophilus microplus is recorded as 100%. Moreover, the “efficacy (rate of extermination)” value in the experiment on Ctenocephalides felis [2] and with Musca domestica was 100% each time.

Regarding `CSc1cc(C(F)(C(F)(F)F)C(F)(F)F)cc(Cl)c1-n1cc(-c2ccc(F)c(CNC(C)=O)c2)cn1` [Ia-07], the efficacy is 100% with Tetranychus urticae, 83% in the experiment with Spodoptera frugiperda, 100% in the experiment with Ctenocephalides felis [1] and 100% with Phaedon cochleariae. Also, the “efficacy (laying of fertile eggs)” value with Boophilus microplus came to 100%. Besides, the “efficacy (rate of extermination)” value in the experiment with Ctenocephalides felis [2] and in the experiment with Musca domestica was 100% throughout.

In the case of `CCC(=O)NCc1c(F)ccc(-c2cnn(-c3c(Cl)cc(C(F)(C(F)(F)F)C(F)(F)F)cc3C(F)(F)F)c2)c1F` [Ia-146], the efficacy in the experiment on Rhipicephalus sanguineus, with Spodoptera frugiperda and in the experiment with Phaedon cochleariae was 100% each time. In the experiment on Boophilus microplus, the “efficacy (laying of fertile eggs)” value was determined as 100%. In addition, the “efficacy (rate of extermination)” value in the experiment with Ctenocephalides felis [2] and with Musca domestica was 100% each time.

In the case of `CCOCN(Cc1cc(-c2cnn(-c3c(Cl)cc(C(F)(C(F)(F)F)C(F)(F)F)cc3Cl)c2)ccc1Cl)C(C)=O` [Ia-117], the efficacy in the experiment with Spodoptera frugiperda, in the experiment on Ctenocephalides felis [1] and in the experiment on Phaedon cochleariae was 100% in each case. Further, the “efficacy (laying of fertile eggs)” value in the experiment with Boophilus microplus is reported as 100%. Further, the “efficacy (rate of extermination)” value in the experiment on Ctenocephalides felis [2] and with Musca domestica was 100% in each case.

Regarding `CC(=O)NCc1cc(-c2cnn(-c3c(Cl)cc(C(F)(C(F)(F)F)C(F)(F)F)cc3OC(F)(F)F)c2)cnc1Cl` [Ia-131], the efficacy in the experiment on Spodoptera frugiperda, with Ctenocephalides felis [1] and in the experiment on Phaedon cochleariae was 100% throughout. Also, the “efficacy (laying of fertile eggs)” value in the experiment with Boophilus microplus is recorded as 100%. Besides, the “efficacy (rate of extermination)” value with Ctenocephalides felis [2] and with Musca domestica was 100% throughout.

In the case of `Cc1cc(C(F)(C(F)(F)F)C(F)(F)F)cc(C)c1-n1cc(-c2ccc(F)c(CNC(=O)C3CC3)c2)cn1` [Ia-04], the efficacy in the experiment with Rhipicephalus sanguineus, in the experiment with Tetranychus urticae, in the experiment on Spodoptera frugiperda and with Phaedon cochleariae was 100% throughout. The “efficacy (laying of fertile eggs)” value in the experiment on Boophilus microplus was found to be 100%. Besides, the “efficacy (rate of extermination)” value in the experiment on Ctenocephalides felis [2] and in the experiment on Musca domestica was 100% each time.

On to `CC(=O)N(C)Cc1cc(-c2cnn(-c3c(Cl)cc(C(F)(C(F)(F)F)C(F)(F)F)cc3Cl)c2)cnc1Cl` [Ia-73], for which the efficacy was 100% and 90% with Tetranychus urticae; 100% with Spodoptera frugiperda; 100% with Ctenocephalides felis [1]; 100% with Phaedon cochleariae. Further, the “efficacy (laying of fertile eggs)” value with Boophilus microplus is listed as 100%. Also, the “efficacy (rate of extermination)” value with Ctenocephalides felis [2] and with Musca domestica was 100% each time.

As to `CCC(=O)N(C)Cc1cc(-c2cnn(-c3c(Cl)cc(C(F)(C(F)(F)F)C(F)(F)F)cc3Cl)c2)ccc1F` [Ia-71], the efficacy with Tetranychus urticae, in the experiment with Spodoptera frugiperda, with Ctenocephalides felis [1] and in the experiment with Phaedon cochleariae was 100% throughout. Further, in the experiment with Boophilus microplus, the “efficacy (laying of fertile eggs)” value was determined as 100%. Moreover, the “efficacy (rate of extermination)” value in the experiment with Ctenocephalides felis [2] and in the experiment on Musca domestica was 100% throughout.

Regarding `CCC(=O)NCc1cc(-c2cnn(-c3c(Cl)cc(C(F)(C(F)(F)F)C(F)(F)F)cc3C(F)(F)F)c2)ccc1Cl` [Ia-29], the efficacy in the experiment with Rhipicephalus sanguineus, in the experiment on Spodoptera frugiperda and in the experiment on Phaedon cochleariae was 100% throughout. Further, the “efficacy (laying of fertile eggs)” value in the experiment with Boophilus microplus was 100%. In addition, the “efficacy (rate of extermination)” value with Ctenocephalides felis [2] and in the experiment with Musca domestica was 100% in each case.

`O=C(NCc1cc(-c2cnn(-c3c(Cl)cc(C(F)(C(F)(F)F)C(F)(F)F)cc3OC(F)(F)F)c2)ccc1F)C1CC1` [Ia-40]: the efficacy with Rhipicephalus sanguineus turned out to be 80%; with Spodoptera frugiperda, 100%; with Phaedon cochleariae it was 100%. Moreover, the “efficacy (laying of fertile eggs)” value in the experiment on Boophilus microplus was found to be 100%. Also, the “efficacy (rate of extermination)” value with Ctenocephalides felis [2] and in the experiment on Musca domestica was 100% each time.

Consider `CC(=O)NCc1cccc(-c2cnn(-c3c(Cl)cc(C(F)(C(F)(F)F)C(F)(F)F)cc3OC(F)(F)F)c2)c1` [Ia-38], for which the values for the efficacy in the experiment with Rhipicephalus sanguineus, in the experiment with Spodoptera frugiperda and in the experiment with Phaedon cochleariae were 80%, 100% and 100%, respectively. Further, in the experiment with Boophilus microplus, the “efficacy (laying of fertile eggs)” value was determined as 100%. The “efficacy (rate of extermination)” value in the experiment with Ctenocephalides felis [2] and with Musca domestica was 100% throughout.

In the case of `CCC(=O)NCc1cccc(-c2cnn(-c3c(Cl)cc(C(F)(C(F)(F)F)C(F)(F)F)cc3C(F)F)c2)c1F` [Ia-143], the figures for the efficacy in the experiment on Rhipicephalus sanguineus, in the experiment with Spodoptera frugiperda and with Phaedon cochleariae were 80%, 100% and 100%, respectively. For the same compound, the “efficacy (laying of fertile eggs)” value in the experiment on Boophilus microplus was 100%. In addition, the “efficacy (rate of extermination)” value with Ctenocephalides felis [2] and with Musca domestica was 100% each time.

With `O=C(CC(F)(F)F)NCc1cc(-c2cnn(-c3c(Cl)cc(C(F)(C(F)(F)F)C(F)(F)F)cc3OC(F)(F)F)c2)ccc1F` [Ia-19], the efficacy with Rhipicephalus sanguineus turned out to be 100%; in the experiment with Tetranychus urticae, 90%; in the experiment with Spodoptera frugiperda, 100%; with Phaedon cochleariae it was 100%. Moreover, the “efficacy (laying of fertile eggs)” value in the experiment on Boophilus microplus was 100%. The “efficacy (rate of extermination)” value in the experiment with Ctenocephalides felis [2] and in the experiment on Musca domestica was 100% in each case.

For the compound `C=CCN(Cc1cc(-c2cnn(-c3c(Cl)cc(C(F)(C(F)(F)F)C(F)(F)F)cc3Cl)c2)ccc1Cl)C(C)=O` [Ia-113], the efficacy with Tetranychus urticae is 90%; in the experiment on Spodoptera frugiperda, 100%; with Ctenocephalides felis [1], 100%; in the experiment on Phaedon cochleariae it was 100%. Also, the “efficacy (laying of fertile eggs)” value in the experiment with Boophilus microplus worked out at 100%. The “efficacy (rate of extermination)” value with Ctenocephalides felis [2] and in the experiment on Musca domestica was 100% in each case.

For the compound `CCC(=O)NCc1c(F)ccc(-c2cnn(-c3c(Cl)cc(C(F)(C(F)(F)F)C(F)(F)F)cc3OC(F)F)c2)c1F` [Ia-157], the efficacy in the experiment on Rhipicephalus sanguineus was 100%; with Tetranychus urticae, 90%; in the experiment on Spodoptera frugiperda, 100%; in the experiment on Phaedon cochleariae, 100%. Also, the “efficacy (laying of fertile eggs)” value in the experiment with Boophilus microplus is on record as 100%. The “efficacy (rate of extermination)” value in the experiment on Ctenocephalides felis [2] and in the experiment with Musca domestica was 100% in each case.

For `CCC(=O)NCc1cc(-c2cnn(-c3c(Cl)cc(C(F)(C(F)(F)F)C(F)(F)F)cc3OC(F)(F)F)c2)ccc1F` [Ia-26], the efficacy was determined as 80% in the experiment on Rhipicephalus sanguineus, 90% in the experiment on Tetranychus urticae, 100% in the experiment on Spodoptera frugiperda and 100% with Phaedon cochleariae. Besides, the “efficacy (laying of fertile eggs)” value in the experiment with Boophilus microplus is given as 100%. The “efficacy (rate of extermination)” value with Ctenocephalides felis [2] and in the experiment on Musca domestica was 100% each time.

Regarding `CC(=O)NCc1cccc(-c2cnn(-c3c(C)cc(C(F)(C(F)(F)F)C(F)(F)F)cc3Cl)c2)c1` [Ia-68], the efficacy in the experiment on Rhipicephalus sanguineus is 80%; in the experiment on Tetranychus urticae, 100%; with Spodoptera frugiperda, 83%; in the experiment on Phaedon cochleariae it was 100%. For the same compound, the “efficacy (laying of fertile eggs)” value in the experiment with Boophilus microplus was 100%. Also, the “efficacy (rate of extermination)” value in the experiment with Ctenocephalides felis [2] and in the experiment on Musca domestica was 100% throughout.

For “N-(2-chloro-5-{1-[2,6-dichloro-4-(1,1,1,2,3,3,3-heptafluoropropan-2-yl)phenyl]-1H-pyrazol-4-yl}benzyl)-N-methylpropanamide [Ia-22]”, the results for the efficacy in the experiment on Rhipicephalus sanguineus, with Tetranychus urticae and in the experiment on Phaedon cochleariae were 80%, 90% and 100%, respectively. Further, the “efficacy (laying of fertile eggs)” value in the experiment with Boophilus microplus was found to be 100%. Further, in the experiment on Ctenocephalides felis [2], the “efficacy (rate of extermination)” value came out at 100%.
